Experimental data taken from patent US7169785B2, “Methods and compositions of novel triazine compounds” (Reddy US Therapeutics, Inc., priority 2001, dated 2007).
Entries after “also recorded” stand apart in the source; their conditions may differ.

Experiments:
[1] = tested on: IL6; assay: Inflammation Data of Table 8: IL6 production compared to cells that did not receive compound (stimulus AGE or TNF not given); format: cell-based
Excerpt: Additional bioactivity data for compounds of the present invention are presented in Table 8, where compounds that have at least the activity of effecting cellular proliferation or at least the activity of modulating inflammation activity, as measured by the assays taught herein, are provided. […] The inclusion of compounds in the categories of the Tables disclosed herein, including this Table, is not to be seen as limiting, in that compounds included in such Tables have at least the activity shown for inclusion in the Table and may have more or other activities. Nor are the Tables to be seen as limiting in that these are the only compounds disclosed herein that have that activity, representative compounds are shown in the Tables that have at least that particular activity for inclusion in the Table. One or more compounds disclosed herein have at least an activity that has utility in treatment of disease states. Note that any hydrogen atoms that are required for any atom to attain its usual valence in a structure presented in Table 8, whether a carbon atom or a heteroatom, should be inferred if it is not specifically indicated.

[2] = tested on: cells; assay: Cytotoxicity / lactate dehydrogenase assay and visual observation of cells; format: cell-based
Description: Assays for determining the activity of compounds capable of cytotoxic activity include those taught in herein and others that are well known in the art. In general, to determine if there is cytotoxic activity associated with a compound, cells of a particular type, in a growing stage or a quiescient stage, are treated with the compound of interest. Various parameters of cell death or cessation are used to measure the effects of the compound. For example, the amount of nucleic acid or protein synthesis can be measured or visual observation of the state of the cells, such as release from the substrate, can be used to measure the state of the cells.
An appropriate number of cells are plated in four 96-well plates, one plate for “day 0” and three plates for days 1–3. Cells are treated with at least one compound of the present invention in varying concentrations with and without the apoptosis inducer cisplatin (2 μM) (“+cis” or “−cis”). Unteated cells are also assayed with and without cisplatin. After transfection, the plates are incubated at 37° C. overnight.
An appropriate number of cells are plated in four 96-well plates, one plate for “day 0” and three plates for days 1–3. Cells are treated with at least one compound of the present invention in varying concentrations. The negative control cells have normal media conditions, a duplicate set of wells is treated with the composition in which the compound is provided, but there is no added compound and the positive control cells are treated with the apoptosis inducer cisplatin (2 μM). All of the cells are transfected with a vector having a promoter that is responsive to apoptosis conditions. When apoptosis occurs, the promoter is turned on and the lactic dehydrogenase gene is activated and the enzyme protein is made and active. Activity is easily detected with a color change. After transfection, the plates are incubated at 37° C. overnight.
About 8 mls of warmed alpha MEM LDH lysis buffer (2% Triton X100) and about 8 mls of culture media (½ dilution) are combined. Two 96-well v-bottom plates are prepared, one labeled “lysis” and one labeled “supernatant.” To lyse the cells, about 200 μl Alpha MEM lysis buffer (diluted ½) is added to one test plate from which the supernatant has been removed and added to the plate labeled supernatant. After mixing, about 200 μl of lysed cells are transferred to the lysis plate. Both the lysis and supernatant plates are centrifuged at about 1600 rpm for about 10 min. After centrifugation, about 100 μl of both the supernatant or lysate is transferred to corresponding 96-well flat-bottomed plates.
The assay for cytotoxicity uses the Cytotoxicity Detection Kit (LDH) from Roche Diagnostics Corp. (Indianapolis, Ind.). Using the directionts provided, the dye solution is mixed and added each well of the lysate and supernatant plate and incubated for up to 20–25 min at 15–25° C. in the dark.

[3] = tested on: Human aortic smooth muscle cells; assay: Smooth muscle cell proliferation assay (anti-proliferation assay, perlecan); format: cell-based; conditions: for IC50: Homo sapiens, read-out: Proliferation Data, average IC50
Description: Human aortic smooth muscle cells (Clonetics) were used. Cells were grown in basal medium containing 5% fetal bovine serum supplemented with growth factors, basic fibroblast growth factor, epidermal growth factor and insulin. […] The cells were then serum starved for 24 h to induce quiescence. Fresh growth medium containing no compound or 10 μM compound was then added and further incubated for 24 h. Cell number was determined by using a cell proliferation assay kit (Celltiter96 AQueous from Promega).

[4] = observed in the proliferation assay

CN(c1nc(Nc2ccc(OCc3ccccc3)c(Cl)c2)nc(NC2CCCCCC2)n1)C1CCNCC1
Inflammation Data (result in words) ([1]; at 1 uM): not active
inhibition at 5 µM ([1]; at 5 uM): 58%
cell death under Inflammation Data ([2]; 5 uM): 50%
cell death under Inflammation Data ([2]; 10 uM): total cell death

COc1ccc(Nc2nc(NC3CCCCCC3)nc(NC3CCNCC3)n2)cc1
inhibition at 5 µM ([1]; at 5 uM): 69%
inhibition at 10 µM ([1]; at 10 uM): 88%
cell death under Inflammation Data ([2]; at 5 uM): 20%
cell death under Inflammation Data ([2]; at 10 uM): > 50%

COc1ccc(Nc2nc(NC3CCCCCC3)nc(NC3CCN(Cc4ccccc4)CC3)n2)cc1F
inhibition at 5 µM ([1]; at 5 uM): 43%
inhibition at 10 µM ([1]; at 10 uM): 97%
cell death under Inflammation Data ([2]; at 5 uM): 25%
cell death under Inflammation Data ([2]; at 10 uM): total cell death
cell morphology change / cell death observed under Proliferation Data (words with concentration) [2, 4]: cell bluntingat 3 uM; also recorded: rounding at 5uM

COc1ccc(Nc2nc(Nc3ccc(OC)c(Cl)c3)nc(OCC3CCCCC3)n2)cc1Cl [Compound 118, N,N′-Bis-(3-chloro-4-methoxy-phenyl)-6-cyclohexylmethoxy-1,3,5-triazine-2,4-diamine]
melting point: 188 °C

COc1ccc(Nc2nc(NC3CCCCCC3)nc(OC3CCCN(C(C)=O)C3)n2)cc1Cl (centres unmarked) [Compound E20, 1-[3-{4-(3-chloro-4-methoxyanilino)-6-cycloheptylamino-1,3,5-triazine-2-yloxy}piperidino]-1-ethanone]
melting point: 138 to 140 °C

COc1ccc(Nc2nc(NC3CCCCCC3)nc(N3CCCC3CO)n2)cc1Cl (centres unmarked)
Inflammation Data (result in words) ([1]; concentration not given): Not Active
Proliferation Data (result in words) ([3]; 5 & 10 uM screens): Did not pass
cell morphology change / cell death observed under Proliferation Data (words with concentration) [2, 4]: rounding

COc1ccc(Nc2nc(NC3CCCCCC3)nc(OC3CCCNC3)n2)cc1Cl (centres unmarked)
inhibition at 10 µM ([1]; at 10 uM): 60%
IC50 [3]: 4.9 µM
cell death under Inflammation Data ([2]; at 10 uM): 20%

Oc1ccc(Nc2nc(Cl)nc(NC3CCCCCC3)n2)cc1Cl
inhibition at 5 µM ([1]; at 5 uM): 25%
inhibition at 10 µM ([1]; at 10 uM): 25%
Proliferation Data (result in words) ([3]; concentration not given): Not active

COc1ccc(Nc2nc(NC3CCCCCC3)nc(Oc3ccccc3F)n2)cc1Cl [Compound E28, N^2-(3-chloro-4-methoxyphenyl)-N^4-cycloheptyl-6-(2-fluorophenoxy)-1,3,5-triazine-4,2-diamine]
melting point: 98 to 100 °C

COc1ccc(Nc2nc(NN3CCCCCC3)nc(N(C)C3CCNCC3)n2)cc1Cl
melting point: 81 °C

CCc1occc(=O)c1Oc1nc(Nc2ccc(OC)c(Cl)c2)nc(NC2CCCCCC2)n1
inhibition at 10 µM ([1]; at 10 uM): 48%
Proliferation Data (result in words) ([3]; 5 & 10 uM screens): Not active at 5 & 10 uM
cell death under Inflammation Data ([2]; at 10 uM): 20%

COc1ccc(Nc2nc(NC3CCCCCC3)nc(OC(C)C)n2)cc1Cl [drawing 993]
inhibition at 10 µM ([1]; at 10 uM): < 25%
Proliferation Data (result in words) ([3]; concentration not given): Not active

CN1CCC(N(C)c2nc(Nc3ccc(OCc4ccccc4)c(Cl)c3)nc(NC3CCCCCC3)n2)CC1
Inflammation Data (result in words) ([1]; at 1 uM): Not active
cell death under Inflammation Data ([2]; 5 uM): 30%
cell death under Inflammation Data ([2]; 10 uM): totaldeath

CN1CCC(N(C)c2nc(Nc3ccc(O)c(Cl)c3)nc(NC3CCCCCC3)n2)CC1 [drawing 1008]
inhibition at 5 µM ([1]; at 5 uM): 64%
inhibition at 10 µM ([1]; at 10 uM): 84%
cell death under Inflammation Data ([2]; 10 uM): total cell death
cell morphology change / cell death observed under Proliferation Data (words with concentration) ([2]; human, 24 h): cell bluntingat 3 to 10 uM

COc1ccc(Nc2nc(NC3CCCCCC3)nc(N3CCN(C)CC3)n2)cc1Cl
inhibition at 10 µM ([1]; at 10 uM): 75%
Proliferation Data (result in words) ([3]; 5 & 10 uM screens): Did not pass
cell death under Inflammation Data ([2]; at 5 uM): 25%
cell death under Inflammation Data ([2]; at 10 uM): total cell death
cell morphology change / cell death observed under Proliferation Data (words with concentration) [2, 4]: blunting androunding

COc1ccc(Nc2nc(NC3CCCCCC3)nc(Oc3ccccc3F)n2)cc1Cl [drawing 1000]
Inflammation Data (result in words) ([1]; concentration not given): Not Active
Proliferation Data (result in words) ([3]; concentration not given): Not active

COc1ccc(Nc2nc(NC3CCCCCC3)nc(OCC3CCCN3C)n2)cc1Cl (centres unmarked)
Inflammation Data, inhibition ([1]; at 10 uM): complete inhibition
IC50 [3]: 5.25 µM
cell death under Inflammation Data ([2]; at 10 uM): total cell death

COc1ccc(Nc2nc(Cl)nc(NC3CC3)n2)cc1F
inhibition at 10 µM ([1]; at 10 uM): 36%
Proliferation Data (result in words) ([3]; concentration not given): Not active

COc1ccc(Nc2nc(Cl)nc(OCC3CCCCC3)n2)cc1Cl [Compound 117, (4-Chloro-6-cyclohexylmethoxy-[1,3,5]triazin-2-yl)-(3-chloro-4-methoxy-phenyl)-amine]
melting point: 114 °C

COc1ccc(Nc2nc(NC3CCCCCC3)nc(N3CCSCC3)n2)cc1Cl [drawing 999]
Inflammation Data (result in words) ([1]; concentration not given): Not Active
Proliferation Data (result in words) ([3]; concentration not given): Not active

COc1ccc(Nc2nc(NC3CCCCCC3)nc(NC3CCN(Cc4ccccc4)CC3)n2)cc1Cl [drawing 1010]
inhibition at 5 µM ([1]; at 5 uM): 37%
inhibition at 10 µM ([1]; at 10 uM): 41%
cell death under Inflammation Data ([2]; at 5 uM): 20%
cell death under Inflammation Data ([2]; at 10 uM): > 50%
cell morphology change / cell death observed under Proliferation Data (words with concentration) [2, 4]: cell blunting at 1 uM; also recorded: rounding at 5 uM

COc1ccc(Nc2nc(NC3CCCCCC3)nc(OC3CCNCC3)n2)cc1Cl
inhibition at 10 µM ([1]; at 10 uM): 85%
IC50 [3]: 1.85 µM
cell death under Inflammation Data ([2]; at 10 uM): 20%

Oc1ccc(Nc2nc(Cl)nc(Cl)n2)cc1Cl
inhibition at 10 µM ([1]; at 10 uM): 35%
Proliferation Data (result in words) ([3]; concentration not given): Not active

COc1ccc(Nc2nc(Cl)nc(Nc3ccc(OC)c(F)c3)n2)cc1F
Inflammation Data, inhibition ([1]; at 5 uM): noeffect
inhibition at 10 µM ([1]; at 10 uM): 20%
Proliferation Data (result in words) ([3]; concentration not given): Not active

COc1ccc(Nc2nc(O)nc(NC3CCCCCC3)n2)cc1Cl [Compound 147, 4-(3-Chloro-4-methoxy-phenylamino)-6-cycloheptylamino-1,3,5-triazin-2-ol]
melting point: > 310 °C

CCN1CCCC1CNc1nc(Nc2ccc(OC)c(F)c2)nc(OCC2CCCCC2)n1 (centres unmarked) [Compound 116, 6-Cyclohexylmethoxy-N-(1-ethyl-pyrrolidin-2-ylmethyl)-N′-(3-fluoro-4-methoxy-phenyl)-[1,3,5]triazine-2,4-diamine]
melting point: 59 °C

CCN1CCCC1CNc1nc(Nc2ccc(OC)c(F)c2)nc(NC2CC2)n1 (centres unmarked)
inhibition at 10 µM ([1]; at 10 uM): 23%
Proliferation Data (result in words) ([3]; concentration not given): Not active

COc1ccc(Nc2nc(NC3CC3)nc(N(C)C3CCN(C)CC3)n2)cc1F
inhibition at 10 µM ([1]; at 10 uM): 25%
Proliferation Data (result in words) ([3]; concentration not given): Not active

CN(c1nc(Nc2ccc(O)cc2)nc(NC2CCCCCC2)n1)C1CCNCC1
inhibition at 5 µM ([1]; at 5 uM): 50%
cell death under Inflammation Data ([2]; 5 uM): 20%
cell death under Inflammation Data ([2]; 10 uM): total cell death

COc1ccc(Nc2nc(NC3CCCCCC3)nc(OC3CCN(C)CC3)n2)cc1Cl
inhibition at 10 µM ([1]; at 10 uM): 95%
cell death under Inflammation Data ([2]; at 10 uM): total cell death
cell morphology change / cell death observed under Proliferation Data (words with concentration) [2, 4]: rounding at 5 & 10 uM

COc1ccc(Nc2nc(NC3CCCCCC3)nc(OCCOc3ccccc3F)n2)cc1Cl
Inflammation Data (result in words) ([1]; concentration not given): Not active
Proliferation Data (result in words) ([3]; concentration not given): Not active
